The source of these data is PubChem BioAssay AID2305 (GlaxoSmithKline (GSK), 2010).

This experiment concerns P. falciparum 3D7 growth, pLDH absorbance. In words: blood-stage malaria parasite growth potency – strain 3D7, dose response (AID 2305).
`Cc1c(-c2cccc(CNCCc3ccc(Cl)cc3)c2)cnc(N)c1C`: the IC50 – broadly, the concentration that gives 50% inhibition – was 1040 nM.

Regarding `Cc1cc2c(NC(=O)NC3CCN(Cc4ccc(Cl)c(Cl)c4)CC3)cccc2cn1`, the IC50 was determined as 680 nM. Compound `Cc1c(C)n(Cc2ccccc2)c2ncnc(OC3CCN(CC(=O)NCC4CC4)CC3)c12` displayed an IC50 of 1120 nM. In turn, `CC(C)(C)c1cc([N+](=O)[O-])cc(C(=O)Nc2ccccc2C(F)(F)F)c1O` showed a concentration for half-maximal inhibition (IC50) of 650 nM. As for `O=c1cc(NCCCNC2CCCc3c2cc(Cl)c(Cl)c3Cl)[nH]c2ccccc12` (stereo unspecified), the IC50 is 280 nM. On to `CN(C)CCC1CCN(CCS(=O)(=O)c2cccc(Nc3ccc(-c4cccc(F)c4)cn3)c2)CC1`, for which the IC50 was 1070 nM. For the compound `C[C@H](Nc1nc(C(Oc2ccccc2)c2ccccc2)nc2[nH]ncc12)c1ccccc1` (stereo partly specified), the IC50 was 480 nM. For `COc1ccc(CCNc2ccnc3cc(Cl)ccc23)cc1OC`, the IC50 is 890 nM. `N#Cc1ccc2c(c1)CCN(CCC1CCC(NC(=O)/C=C/c3ccc(F)c4ccccc34)CC1)CC2` (stereo unspecified) displayed an IC50 of 840 nM. Under `CCN1CCC(N(Cc2ccc(-c3ccc(C(F)(F)F)cc3)cc2)C(=O)Cn2c(CCc3cccc(F)c3F)cc(=O)c3ccccc32)CC1` stands 830 nM; under `COc1ccc(-c2cc(C(=O)Nc3ccc(CCCN(C)Cc4ccc(OC)c(OC)c4)cc3)c3ccccc3n2)cc1`, 700 nM; under `CCNc1cc(-c2cccc(OC)c2)nc(Nc2ccc(F)cc2)n1`, 1270 nM. Regarding `NCc1ccc(-c2ccc3c(N)nccc3c2)cc1`, the 50% inhibitory concentration (IC50) worked out at 890 nM.

`CNCCNCc1cccc(-c2cccc(-c3nc4ccc(F)cc4[nH]3)c2)c1` yielded a 50% inhibitory concentration (IC50) of 670 nM. The same measure for `COc1cccc(NC(=O)Cn2c(C)c(C#N)c3ccccc32)c1`: 880 nM; for `COc1ccc2ncc(F)c(CCN3CCC[C@H](CNCc4ccc5c(n4)NC(=O)CS5)C3)c2n1`: 970 nM.

`Nc1ncc(-c2ccc(F)cc2)c2ccc(-c3cccc(F)c3)cc12` had an IC50 of 230 nM. `CCc1c[nH]c2c(N3CCCC3=O)cc(C(=O)N[C@@H](Cc3ccccc3)[C@H](O)CNC(C)(C)CCCC(C)C)cc12` showed an IC50 of 510 nM. On to `Cc1cc(N(C)CCCN(C)C)nc(Nc2ccc(Br)cc2)n1`, for which the IC50 is 640 nM. `NS(=O)(=O)Cc1cccc(-c2ccnc3ccc(-c4cccc(S(N)(=O)=O)c4)cc23)c1` returned an IC50 of 1560 nM.

In turn, `Cc1ccc(CC(C)NCC(O)c2cccc(Cl)c2)cc1F` (stereo unspecified) registered an IC50 of 740 nM. Regarding `CCOc1ccc(OCC(=O)Nc2nc(-c3ccc(OC)cc3)c(C)s2)cc1`, the IC50 was 220 nM.

With `COc1ccc(CN2CCCN(Cc3cccc(NC(=O)c4ccc(Cl)c(Cl)c4)c3)CC2)cc1`, the IC50 turned out to be 970 nM.

As to `O=C(Nc1ccc2oc(-c3ccc(Br)cc3)nc2c1)c1ccc([N+](=O)[O-])o1`, the IC50 was determined as 970 nM. Turning to `Cc1cccc2[nH]c(-c3ccc(-c4cccc(CNCCCN5CCCC5=O)c4)cc3)nc12`, the IC50 came to 840 nM. Take `Nc1c2nc(-c3c(F)cccc3Cl)[nH]c(=O)c2nc(=O)n1-c1ccccc1`: the IC50 was 680 nM. `Cc1cnc(C(=O)Nc2ccc(-c3cccc(-c4nc5ccccc5[nH]4)c3)cc2)cn1`: the IC50 came to 830 nM. Turning to `Cc1ccnc(NC(c2cccc(Cl)c2Cl)c2ccc3cccnc3c2O)c1` (stereo unspecified), the half-inhibitory concentration (IC50) was 1000 nM. In turn, `Cn1nc(-c2ccc(S(=O)(=O)N3CCC(CCN4CCC(c5c[nH]c6ccccc56)CC4)CC3)s2)cc1C(F)(F)F` gave an IC50 of 810 nM. Turning to `CC[C@H]1CN2CC[C@@H]1C[C@H]2[C@H](O)c1ccnc2ccc(OC)cc12`, the IC50 was 230 nM. Under `FC(F)(F)c1ccc(-c2cncc(-c3ccc(C(F)(F)F)cc3)n2)cc1` stands 760 nM; under `CC(=O)N(C)C1CCN(Cc2cccc(-c3ccc(-c4nc5ccc(F)cc5[nH]4)cc3)c2)C1` (stereo unspecified), 960 nM; under `CCn1cc(C=C2Oc3c(ccc(O)c3CN3CCCCC3)C2=O)c2ccccc21`, 280 nM. Compound `CC(C)NCc1cccc(-c2cccc(NC(=O)c3ccc(C#N)cc3)c2)c1` came in with an IC50 of 650 nM.

As for `COc1ccccc1N=C1SC(=Cc2cn(CC(=O)N3CCCc4ccccc43)c3ccccc23)C(=O)N1C1CCCCC1`, the half-maximal inhibitory concentration (IC50) stood at 30 nM. The compound `Cc1cccc2[nH]c(-c3ccc(-c4cccc(CN5CCN(CC6CCCN(C)C6)CC5)c4)s3)nc12` (stereo unspecified) gave an IC50 of 120 nM. `CCC(=O)c1cc(C(=O)NCCc2cccc(OC)c2)ccc1OC`: the IC50 is 900 nM. The same measure for `COc1ccc(Br)cc1/C=C/C(=O)Nc1cccc(C2CCCN(C)C2)c1` (stereo unspecified): 890 nM.

In turn, `Cc1cc(N(C)C)nc(Nc2ccc(NC(=O)CCc3ccccc3)cc2)n1` displayed an IC50 of 850 nM. Consider `COc1ccc(Cl)cc1-c1nc(C(=O)NCCN2CCCCC2)c(C(C)C)s1`, for which the IC50 worked out at 750 nM. Turning to `CN(CCCCCN1CCC(NC(=O)Nc2ccc(Oc3ccccc3)cc2)C1)C(=O)/C=C/c1ccc(Cl)c(Cl)c1` (stereo unspecified), the half-maximal inhibitory concentration (IC50) is 420 nM. Take `CCOC(=O)C(C#N)NC(=O)C=Cc1ccccc1` (stereo unspecified): the IC50 was found to be 800 nM. The compound `FC(F)(F)c1ccc(CNC2CCN(CC3CCCCC3)CC2)cc1` showed a concentration for half-maximal inhibition (IC50) of 930 nM.

In turn, `Cc1ccc(C(=O)Nc2ccc(F)c(F)c2F)cc1S(=O)(=O)N1CCCCC1` gave an IC50 of 760 nM. Take `COc1cc2nc(N3CCC(CNC(=O)/C=C/c4cccc(C)c4)CC3)nc(N)c2cc1OC`: the IC50 stood at 680 nM.

In turn, `Clc1ccc2c(NCCNc3ccnc4cc(Cl)ccc34)ccnc2c1` had an IC50 of 400 nM. The same measure for `CS(=O)(=O)CCNc1nccc(N2CCc3ncnc(Nc4ccc(OCc5cccc(F)c5)c(Cl)c4)c3C2)n1`: 130 nM; for `Cc1cc(N[C@@H](Cc2ccccc2)C(=O)NCc2cccc(F)c2)nc(NCCc2cccs2)n1`: 620 nM.

For `Cn1c(Nc2cc(C(C)(C)C)on2)nc2cc(Nc3ccnc(Nc4cccc(S(=O)(=O)N5CCOCC5)c4)n3)ccc21`, the IC50 came out at 530 nM.

As for `COc1ccccc1CN1CCC(CNC(=O)c2cc(-c3cccc(C(F)(F)F)c3)cs2)C1` (stereo unspecified), the half-inhibitory concentration (IC50) was found to be 1310 nM. In the case of `O=S(=O)(NCCN1CCCC1)c1ccc(-c2cccc(CNC3Cc4ccccc4C3)c2)s1`, the IC50 turned out to be 750 nM. Take `Cc1nnc(Sc2ncnc3scc(-c4ccc(F)cc4)c23)s1`: the IC50 is 810 nM. As to `CN(C)CCOc1cc(NC(=O)Nc2ccc(-c3ccccc3)cc2)ccc1I`, the IC50 worked out at 600 nM. `Cc1cccc2[nH]c(-c3ccc(-c4cccc(NC(=O)C(C)CN(C)C)c4)cc3)nc12` (stereo unspecified): the IC50 is 650 nM.

Compound `CN1CCN(CCCN(Cc2ccc(-c3ccc(CNCCc4ccccc4)cc3)cc2)C(=O)c2cccs2)CC1` registered an IC50 of 1430 nM.

Take `COc1cc(-c2nc(-c3ccccc3)c(-c3ccc([N+](=O)[O-])cc3)[nH]2)cc(OC)c1O`: the IC50 is 830 nM. For the compound `Fc1ccc(CNc2nc(-c3ccc(F)c(C(F)(F)F)c3)n(-c3cccc(C(F)(F)F)c3)n2)cc1`, the IC50 amounted to 560 nM. With `Cc1nnc(-c2cccc(Nc3ccnc4cc(-c5nccs5)ccc34)c2)o1`, the IC50 was found to be 630 nM. `O=C(NCc1ccc(Cl)cc1)c1ccc(CN2CCCN(CC3CCCCC3)CC2)cc1`: the IC50 came to 1700 nM.

`CN1CCCC1CCNCc1ccc(-c2ccc(CNCCc3ccccc3)cn2)cc1` (stereo unspecified) gave an IC50 of 1110 nM. `C[C@@H](C(N)=O)N1CCCCC1c1ccc(OCc2cccc(F)c2)cc1` (stereo partly specified) displayed an IC50 of 990 nM. Compound `COc1ccc(CCNCCCCCNCCc2ccc(Cl)cc2)cc1OC` registered an IC50 of 740 nM. Under `O=C(/C=C/c1ccc(Cl)c(Cl)c1)N1CCC(CCN2CCc3[nH]c4ccccc4c3C2)CC1` stands 890 nM; under `COc1ccc2nccc([C@@H](O)CN3CCC(NCc4nc5c(F)cc(F)cc5[nH]4)CC3)c2c1`, 570 nM; under `COc1ccc(N2CCN(c3nc(N)c4cc(OC)c(OC)cc4n3)CC2C)cc1` (stereo unspecified), 1420 nM. As to `CN1C(C)(C)CC(NC(=O)c2ccc(-c3nc4ccc(Cl)cc4[nH]3)cc2)CC1(C)C`, the IC50 turned out to be 990 nM. Consider `CCCCOC(=O)c1ccc(Nc2cc(C)nc3ccc(OC)cc23)cc1`, for which the half-inhibitory concentration (IC50) worked out at 640 nM. With `COc1ccc2nccc(N3CCC(CCNCc4cc5c(cn4)OCCO5)CC3)c2n1`, the IC50 turned out to be 220 nM. As to `CC1(C(=O)Nc2ccc([N+](=O)[O-])cc2O)CC2c3ccccc3C1c1ccccc12` (stereo unspecified), the IC50 stood at 710 nM. The same measure for `O=S(=O)(NC1CCN(c2ccnc3cc(Cl)ccc23)C1)c1ccc(F)cc1` (stereo unspecified): 470 nM; for `O=C(Nc1cccc(F)c1)N[C@H]1CCN(CCCCCNC(=O)[C@@H]2C[C@H]2c2ccc(Cl)c(Cl)c2)C1`: 990 nM; for `N#Cc1ccc(/C=C/C(=O)NCCCCCN2CCCN(C(=O)Nc3ccc(Cl)c(C(F)(F)F)c3)CC2)cc1`: 440 nM.

For the compound `COc1ccc(CCNCCCCNCCc2ccc(OC)c3ccccc23)c2ccccc12`, the IC50 worked out at 450 nM.

In the case of `N#CCc1ccc(Nc2nccc(Nc3ccc(Oc4ccccc4)cc3)n2)cc1`, the IC50 is 810 nM. The compound `C=C[C@]1(C)C[C@@H](OC(=O)CS[C@H]2CN3CC[C@H]2C3)[C@@]2(C)C3C(=O)CC[C@@]3(CC[C@H]2C)[C@@H](C)[C@@H]1O` (stereo partly specified) came in with a half-inhibitory concentration (IC50) of 690 nM. As to `NC(N)=NC(=O)Nc1ccc(Cl)c([N+](=O)[O-])c1`, the IC50 is 760 nM. On to `COc1ccc(S(=O)(=O)N2CCC(NS(=O)(=O)c3ccc(F)cc3)CC2)cc1`, for which the IC50 is 1330 nM. `CC(C)N(Cc1ccc(-c2ccc(C(F)(F)F)cc2)cc1)C(=O)Cn1c(SCc2cccc(F)c2F)cc(=O)c2cc(CN3CCCCC3)ccc21` yielded an IC50 of 870 nM.

Take `COc1ccccc1CCNC(=O)c1cc(Br)cc(N2CCN(c3ccncc3)CC2)c1`: the half-maximal inhibitory concentration (IC50) was found to be 1270 nM.

As for `CN1C(C)(C)CC(NC(=O)c2ccc(-c3nc4cc(Cl)c(Cl)cc4[nH]3)cc2)CC1(C)C`, the IC50 was found to be 730 nM. For `O=S(=O)(NC1CCC(CN2CCC(c3c[nH]c4ccccc34)CC2)CC1)c1ccc(Cl)c(Cl)c1` (stereo unspecified), the IC50 was determined as 820 nM. Under `O=C(/C=C/c1ccc(Cl)c(Cl)c1)NCCCCCN1CCCN(C(=S)Nc2ccc(Cl)c(Cl)c2)CC1` stands 870 nM; under `Cc1csc(-c2nc(NCc3cccnc3)ncc2-c2ccsc2)n1`, 1190 nM. On to `FC(F)(F)c1ccc2nc(-c3ccc(-c4cccc(CNCc5cnn(-c6ccccc6)n5)c4)s3)[nH]c2c1`, for which the concentration for half-maximal inhibition (IC50) stood at 330 nM. Compound `CC(C)(C)c1nn(-c2ccccc2)c2[nH]c(=O)c(CNCc3ccc4c(c3)OCO4)cc12` came in with an IC50 of 1050 nM. `CN(CC1CCC(NC(=O)/C=C/c2ccc(Cl)c(Cl)c2)CC1)C1CCC(c2c[nH]c3ccccc23)CC1` (stereo unspecified) came in with an IC50 of 840 nM.
